Results on one substance are retold here after patent US10202604B2, “Methods of using microRNA-141” (Stemirna Therapeutics Co., Ltd., priority 2016, dated 2019).

In data set [1] the test system is E-Cadherin and ZEB-1 in PC3 and Du145 cells. Briefly: Western blotting of E-Cadherin and ZEB-1. Particulars: bulk Du145 and PC3 cells; 30 or 60 nM, 48 h. Type of data set: cell-based, human. As to the method: FIGS. 3A-3J show partial suppression of epithelial to mesenchymal transition by miR-141 and CD44 as a direct target of miR-141. FIGS. 3A-3B show qPCR analysis of epithelial to mesenchymal transition markers in bulk (FIG. 3A) or CD44^+ (FIG. 3B) Du145 cells transfected with the miR-141 oligos (30 nM; 48 h). Results were presented as the relative expression levels over the cells transfected with the NC oligos. […] GAPDH was used as control and the relative protein levels after normalizing to GAPDH and NC controls were indicated below each lane. […] Shown below is the actual sequence in the region with the mutated miR-141 binding sequence indicated in grey (below). […] Shown are representative images. […] Du145 cells were co-transfected with NC or miR-141 oligos (30 nM) together with pBabe empty vector or pBabe-CD44 vector. After 48 h, cells were harvested for invasion assays. Bars, mean±SD. *, P<0.05; **, P<0.01.

For another data set, the system named is CDC42. Briefly: Rho family GTPase activity assay (G-LISA). Format: cell-based, human. Particulars: Du145 cells, Lenti-141 MOI 10, 48 h. As for the experimental part: (§1) Du145 cells transfected with NC or miR-141 oligos at the two doses and time intervals indicated were used in Western blotting. Indicated below are relative expression levels (normalized to respective GAPDH and compared to NC) of each protein determined by densitometric scanning of the individual bands. […] Bars, mean±SD. *P<0.05; **P<0.01. […] Du145 cells were co-transfected with NC or miR-141 oligos (30 nM) in combination with pcDNA3.1 (control) vector or pcDNA-RAC1 or pcDNA-CDC42 expression vector. After 48 h, cells were harvested for invasion assays. […] Du145 cells were infected with Lenti-141 or control lentivirus (MOI 10, 48 h) and then harvested to measure the Rho GTPase activities. Bars, mean±SD. *P<0.05. […] Du145 cells were transfected with the antisense oligos to NC or miR-141 (anti-141; 30 nM) and then used in invasion assays (FIG. 5E). In FIG. 5F and FIG. 5G Du145 cells were transfected with 10 nM of scramble siRNA control (siCon) or siRNAs targeting RAC1 (FIG. 5F) or CDC42 (FIG. 5G), either alone or in combination of anti-141 (30 nM). 48 h later, cells were harvested for invasion assays. Bars, mean±SD. *P<0.05; **P<0.01.
(§2) The activity of Rho family of small GTPases including RhoA, RAC1 and CDC42 were detected using G-LISA small G-protein activation assays per the manufacturer's instructions (Cytoskeleton, Inc., Denver, Colo.; catalog# BK135).

A further data set deals with RAC1. In words: Rho family GTPase activity assay (G-LISA). Format: cell-based, human. The following applies: Du145 cells, Lenti-141 MOI 10, 48 h. As to the method:
as §1, §2

A further data set concerns RhoA. Briefly: Rho family GTPase activity assay (G-LISA). Type of data set: cell-based, human. The following applies: Du145 cells, Lenti-141 MOI 10, 48 h. As to the method:
as §1, §2

A further data set relates to CD44. In words: CD44 levels in endpoint tumors. The following applies: tumors from miR-141 overexpressing cells vs control tumors. Type of data set: in vivo.
For a further data set, the system named is PPC-1 cells. Briefly: Clonal and sphere formation assays. Format: cell-based, human. As to the method: For clonal assays, cultured prostate cancer cells or human prostate cancer cells freshly purified from patient primary tumors were plated at a clonal density (i.e., 100 cells/well) in a 6-well plate. The number of holoclones (33) was counted several days later. For Matrigel-based sphere formation assays, cells in medium were plated (generally 1,000 cells/well) in Matrigel at 1:1 ratio in a total of 100 μl in 96-well plates. Spheres were enumerated 1-2 weeks after plating. For floating sphere formation assays, cells were plated in serum-free epithelial basal medium (PrEBM) supplemented with B27 (Invitrogen), and 20 ng/ml EGF and bFGF in ultra-low attachment (ULA) plate. Floating spheres that arose in 1-2 weeks were counted. For all these experiments, a minimum of triplicate wells was run for each condition and repeat experiments were performed when necessary and feasible.

The next data set has as its system Human ARPC5 3'-UTR. In words: 3'-UTR luciferase reporter assay. Format: cell-based. Particulars: Du145 cells; 30 nM miR-141 vs NC oligos. As for the experimental part: as §1
(§3) The human CD44 3′-UTR was amplified from Du145 genomic DNA using primers 5′-[…]-3′ (SEQ ID NO: 2) and 5′-[…]-3′ (SEQ ID NO: 3), as previously described (13). For site-specific mutagenesis, the region in the CD44 3′-UTR (SEQ ID NO: 4, shown with uracils) complementary to the seed sequence of miR-141 (SEQ ID NO: 1) were mutated (TAGTGTT to GGCGCGG; see FIG. 3D). The human EZH2 3′-UTR was amplified from Du145 genomic DNA using primers 5′-GAGCTC-CATCTGCTACCTCCTCCCC-3′ (SEQ ID NO: 6) and 5′-[…]-3′ (SEQ ID NO: 7). For site-specific mutagenesis, the region complementary to the seed sequence of miR-141 was mutated (AAAGTGTT to TATCACAA; see FIG. 6A). The PCR fragments were cloned into pGEM-T vector (Promega, Madison, Wis.) and sequence confirmed. Cells were plated in 24-well plates and co-transfected, using Lipofectamine 2000, with 1 μg firefly luciferase reporter plasmid and 5 ng Renilla plasmid (phRL-CMV) into which the 3′-UTR fragments were cloned. The luciferase activities were detected using Duo-luciferase reporter assay system (Promega). Human RAC1, CDC42, CDC42EP3, and ARPC5 3′-UTR luciferase reporter constructs were obtained from SwitchGear Genomics (Menlo Park, Calif.) and luciferase activities were measured per the manufacturer's instructions using LightSwitch luciferase assay kit.
A general note: In a reporter assay the amount or activity of a reporter protein is the signal.

For the next data set, the system named is Human CDC42 3'-UTR. In words: 3'-UTR luciferase reporter assay. Type of data set: cell-based. Particulars: Du145 cells; 30 nM miR-141 vs NC oligos. As for the experimental part:
as §1, §3

A further data set concerns Human CDC42EP3 3'-UTR. Briefly: 3'-UTR luciferase reporter assay. Type of data set: cell-based. Particulars: Du145 cells; 30 nM miR-141 vs NC oligos. As for the experimental part: as §1, §3
The next data set relates to Human RAC1 3'-UTR. In words: 3'-UTR luciferase reporter assay. Format: cell-based. The following applies: Du145 cells; 30 nM miR-141 vs NC oligos. As for the experimental part: as §1, §3

Turning to “miR-141: miR-141 mirVana mimics (Life Technologies); microRNA-141 oligonucleotide may have SEQ ID NO: 1; in some experiments over-expressed by lentiviral vectors (UAACACUGUCUGGUAAAGAUGG; listed as RNA, further chemistry not given here) [miR-141 mirVana mimics (Life Technologies); in some experiments over-expressed by lentiviral vectors]”, in [1], the “E-cadherin (CDH1) protein level” value is listed as “increased” and the ZEB1 protein level entry is given as “reduced”. Also, the “GTPase activity of CDC42” value in the data set on CDC42 is “suppressed”. Also, the “GTPase activity of RAC1” value in the data set on RAC1 is on record as “suppressed”. Further, the “GTPase activity of RhoA” value in the data set on RhoA is reported as “not”. For the same substance, in the data set with CD44, the “CD44 mRNA level in endpoint tumors” value is listed as “lower levels” and the “CD44 protein level in endpoint tumors” value is “lower levels”. Further, in the data set on PPC-1 cells, the clonal expansion entry is “inhibited” and the sphere formation result is on record as “inhibited”. Moreover, the “luciferase activity of ARPC5 3'-UTR construct” value in the data set with Human ARPC5 3'-UTR is on record as “inhibited”. Besides, the “luciferase activity of CDC42 3'-UTR construct” value in the data set with Human CDC42 3'-UTR is “inhibited”. Also, the “luciferase activity of CDC42EP3 3'-UTR construct” value in the data set with Human CDC42EP3 3'-UTR was “inhibited”. Moreover, in the data set with Human RAC1 3'-UTR, the “luciferase activity of RAC1 3'-UTR construct” value was “inhibited”.
